Measured values: patent US9422267B2, “Fused pyrimidine compounds and use thereof” (Medivation Technologies, Inc., priority 2012, dated 2016)
Like-named read-outs stand apart in the source and are kept apart here.

Assays:
[1] = target: IGF1R (Homo sapiens, UniProt P08069); assay: In vitro IGF-1R enzymatic assay (ADP-Glo kinase assay); assay type: biochemical; set-up: purchased Millipore 14-802; details: activated IGF-1R; for inhibition at 0.03 µM: 30 nM; for IC50: read-out: IC50
Experimental: (§1) IC50 values of the compounds of the invention against IGF-1R and IR were measured in vitro using an ADP-Glo kinase assay Kit (Promega). […] Kinase reactions in both assays were conducted at 30° C. for 20 min with increasing concentrations of compounds of the invention.

[2] = target: T1, IR (Homo sapiens, UniProt P06213); assay: In vitro IR enzymatic assay (ADP-Glo kinase assay); assay type: biochemical; details: activated IR; for inhibition at 0.03 µM: 30 nM; for IC50: read-out: IC50
T1 construct: purchased Millipore 14-803
T1 sequence (P06213 28-1382): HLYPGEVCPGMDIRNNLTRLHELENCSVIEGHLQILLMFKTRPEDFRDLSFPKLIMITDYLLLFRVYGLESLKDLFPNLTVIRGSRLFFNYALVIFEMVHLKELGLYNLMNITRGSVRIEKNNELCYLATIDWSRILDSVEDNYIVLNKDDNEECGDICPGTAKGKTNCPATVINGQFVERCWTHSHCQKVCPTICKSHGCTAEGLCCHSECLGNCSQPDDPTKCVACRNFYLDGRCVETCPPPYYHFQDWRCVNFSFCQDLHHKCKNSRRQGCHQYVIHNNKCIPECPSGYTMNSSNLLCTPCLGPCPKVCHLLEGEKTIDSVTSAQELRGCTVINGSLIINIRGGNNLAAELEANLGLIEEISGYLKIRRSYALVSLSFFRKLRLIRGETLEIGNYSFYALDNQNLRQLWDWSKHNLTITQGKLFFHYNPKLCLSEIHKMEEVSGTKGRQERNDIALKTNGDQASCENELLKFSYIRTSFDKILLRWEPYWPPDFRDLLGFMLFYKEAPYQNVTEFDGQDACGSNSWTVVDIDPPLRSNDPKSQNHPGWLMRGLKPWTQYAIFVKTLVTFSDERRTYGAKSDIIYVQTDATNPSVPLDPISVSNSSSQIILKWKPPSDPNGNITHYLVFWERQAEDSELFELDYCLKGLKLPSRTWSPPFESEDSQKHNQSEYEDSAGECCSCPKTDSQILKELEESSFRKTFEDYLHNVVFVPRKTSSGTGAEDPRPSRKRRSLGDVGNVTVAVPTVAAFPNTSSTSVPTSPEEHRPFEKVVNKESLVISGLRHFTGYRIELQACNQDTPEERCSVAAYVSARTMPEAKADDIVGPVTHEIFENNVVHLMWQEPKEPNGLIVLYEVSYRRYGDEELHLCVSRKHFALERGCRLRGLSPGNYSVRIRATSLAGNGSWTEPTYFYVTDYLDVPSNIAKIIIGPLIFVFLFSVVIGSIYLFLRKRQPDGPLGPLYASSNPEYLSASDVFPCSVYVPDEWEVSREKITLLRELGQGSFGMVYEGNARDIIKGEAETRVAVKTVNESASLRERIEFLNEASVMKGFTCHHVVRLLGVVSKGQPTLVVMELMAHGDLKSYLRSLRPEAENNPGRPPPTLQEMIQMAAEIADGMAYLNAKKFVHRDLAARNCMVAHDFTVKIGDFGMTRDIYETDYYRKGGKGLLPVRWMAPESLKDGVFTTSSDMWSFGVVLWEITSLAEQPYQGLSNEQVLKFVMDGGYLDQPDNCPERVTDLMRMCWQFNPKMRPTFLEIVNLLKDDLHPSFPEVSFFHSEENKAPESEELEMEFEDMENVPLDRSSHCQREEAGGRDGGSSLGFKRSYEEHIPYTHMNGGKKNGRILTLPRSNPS
Experimental: as §1

[3] = tested on: Akt phosphorylation induced by IGF-1R in HT-29 cells; assay: Western blot analysis of Akt phosphorylation induced by IGF-1R; assay type: cell-based, Human; details: then IGF-1 10 ng/mL 10 min, HT-29
Experimental: Inhibition of Akt phosphorylation induced by IGF-1R was studied by western blot analysis. Human colon carcinoma HT-29 cells were seeded at a density of 8×10^4 cells/well in a 24-well plate and grown in DME/F12 media containing 10% FBS for 24 h. The cells were then depleted of serum by incubation in DME/F12 media lacking FBS for 24 h. […] […] Lysed cells were centrifuged at 13,000 rpm for 15 min and the protein concentration soluble fraction (supernatant) of each sample was determined using a BCA protein assay (Pierce).

[4] = average, read-out: % Inh @ 30 nM Avg
[5] = replicate N1, read-out: % Inh @ 30 nM (N1)
[6] = replicate N2, read-out: % Inh @ 30 nM (N2)

IGF1R, sequence (P08069 31-1367): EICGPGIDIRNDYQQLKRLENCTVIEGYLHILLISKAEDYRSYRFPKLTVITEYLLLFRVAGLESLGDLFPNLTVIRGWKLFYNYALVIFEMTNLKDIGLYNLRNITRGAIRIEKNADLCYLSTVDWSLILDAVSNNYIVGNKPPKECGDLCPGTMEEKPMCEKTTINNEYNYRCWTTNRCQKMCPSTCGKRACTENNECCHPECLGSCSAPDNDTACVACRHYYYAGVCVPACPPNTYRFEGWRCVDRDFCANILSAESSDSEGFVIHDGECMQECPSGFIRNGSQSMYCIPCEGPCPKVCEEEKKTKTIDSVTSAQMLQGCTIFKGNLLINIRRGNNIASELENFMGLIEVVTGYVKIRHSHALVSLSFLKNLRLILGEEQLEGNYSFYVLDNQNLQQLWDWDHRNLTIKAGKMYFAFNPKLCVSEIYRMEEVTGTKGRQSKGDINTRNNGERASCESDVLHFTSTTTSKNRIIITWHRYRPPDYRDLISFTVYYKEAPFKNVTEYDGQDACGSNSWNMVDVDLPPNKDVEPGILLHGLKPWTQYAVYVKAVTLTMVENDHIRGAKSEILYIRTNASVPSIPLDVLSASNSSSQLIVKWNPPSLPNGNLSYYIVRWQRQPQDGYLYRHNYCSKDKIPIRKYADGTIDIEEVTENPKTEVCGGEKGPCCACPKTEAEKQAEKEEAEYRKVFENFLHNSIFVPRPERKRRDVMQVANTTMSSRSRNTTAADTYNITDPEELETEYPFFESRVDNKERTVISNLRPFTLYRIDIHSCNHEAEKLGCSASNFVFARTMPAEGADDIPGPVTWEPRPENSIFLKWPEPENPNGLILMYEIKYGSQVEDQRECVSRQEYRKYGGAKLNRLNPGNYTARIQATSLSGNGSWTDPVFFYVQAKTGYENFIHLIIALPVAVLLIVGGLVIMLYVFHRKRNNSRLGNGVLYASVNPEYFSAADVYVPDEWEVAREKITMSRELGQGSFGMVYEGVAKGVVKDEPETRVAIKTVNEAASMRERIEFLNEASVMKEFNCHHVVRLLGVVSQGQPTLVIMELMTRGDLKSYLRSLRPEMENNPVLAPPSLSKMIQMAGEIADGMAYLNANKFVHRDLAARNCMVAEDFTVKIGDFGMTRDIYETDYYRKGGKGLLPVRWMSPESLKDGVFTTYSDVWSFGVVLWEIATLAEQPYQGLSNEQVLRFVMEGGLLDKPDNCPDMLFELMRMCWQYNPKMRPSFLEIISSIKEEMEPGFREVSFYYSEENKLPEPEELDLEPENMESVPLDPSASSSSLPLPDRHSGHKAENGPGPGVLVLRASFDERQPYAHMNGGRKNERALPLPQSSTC

Row | SMILES | inhibition at 0.03 µM [1, 4] [%] | inhibition at 0.03 µM [2, 4] [%] | IC50 [2] [nM] | inhibition at 0.03 µM [1, 5] [%] | inhibition at 0.03 µM [1, 6] [%] | phosphorylated AKT levels normalized to actin levels (pAKT/actin) ([3]; 100 nM compound 2 h) | inhibition at 0.03 µM [2, 5] [%] | inhibition at 0.03 µM [2, 6] [%] | IC50 [1] [nM] | phosphorylated AKT levels normalized to actin levels (pAKT/actin) ([3]; 0.1 nM compound 2 h) | phosphorylated AKT levels normalized to actin levels (pAKT/actin) ([3]; 1 nM compound 2 h) | phosphorylated AKT levels normalized to actin levels (pAKT/actin) ([3]; 10 nM compound 2 h)
1 | CC(C)c1cc(Nc2nc(N3CCCC3C(=O)Nc3ccc(F)nc3)nc3c2CC(C)(C)C3)n[nH]1 (racemic) [Compound 50, N-(6-fluoropyridin-3-yl)-1-(4-((5-isopropyl-1H-pyrazol-3-yl)amino)-6,6-dimethyl-6,7-dihydro-5H-cyclopenta[d]pyrimidin-2-yl)pyrrolidine-2-carboxamide] | 35 | 51 | 36 | – | – | – | – | – | – | – | – | –
2 | CC(C)c1cc(Nc2nc(N3CCCC3C(=O)Nc3nccs3)nc3c2CCC3)n[nH]1 (racemic) [Compound 68, 1-(4-(5-isopropyl-1H-pyrazol-3-ylamino)-6,7-dihydro-5H-cyclopenta[d]pyrimidin-2-yl)-N-(thiazol-2-yl)pyrrolidine-2-carboxamide] | – | – | 11 | – | – | – | – | – | – | – | – | –
3 | CC(C)c1cc(Nc2nc(N3CCCC3C(=O)Nc3ccncn3)nc3c2CCC3)n[nH]1 (racemic) [Compound 69, 1-(4-(5-isopropyl-1H-pyrazol-3-ylamino)-6,7-dihydro-5H-cyclopenta[d]pyrimidin-2-yl)-N-(pyrimidin-4-yl)pyrrolidine-2-carboxamide] | – | – | 32 | – | – | – | – | – | – | – | – | –
4 | CC(C)c1cc(Nc2nc(N3CC(O)CC3C(=O)Nc3ccc(F)nc3)nc3c2CCC3)n[nH]1 (racemic) [Compound 70, N-(6-fluoropyridin-3-yl)-4-hydroxy-1-(4-(5-isopropyl-1H-pyrazol-3-ylamino)-6,7-dihydro-5H-cyclopenta[d]pyrimidin-2-yl)pyrrolidine-2-carboxamide] | – | – | 22 | – | – | – | – | – | – | – | – | –
5 | CC(C)c1cc(Nc2nc(N3CC(O)CC3C(=O)Nc3nccs3)nc3c2CCC3)n[nH]1 (racemic) [Compound 71, 4-hydroxy-1-(4-(5-isopropyl-1H-pyrazol-3-ylamino)-6,7-dihydro-5H-cyclopenta[d]pyrimidin-2-yl)-N-(thiazol-2-yl)pyrrolidine-2-carboxamide] | – | – | 44 | – | – | – | – | – | – | – | – | –
6 | CC(C)c1cc(Nc2nc(N3CCCC3C(=O)Nc3ccc(N)nc3)nc3c2CCC3)n[nH]1 (racemic) [Compound 72, N-(6-aminopyridin-3-yl)-1-(4-(5-isopropyl-1H-pyrazol-3-ylamino)-6,7-dihydro-5H-cyclopenta[d]pyrimidin-2-yl)pyrrolidine-2-carboxamide] | – | – | 16 | – | – | – | – | – | – | – | – | –
7 | O=C(Nc1ccc(F)nc1)C1CCCCN1c1nc2c(c(Nc3cc(C4CC4)[nH]n3)n1)CCC2 (single isomer, unassigned) [Compound 9b, 1-(4-(5-cyclopropyl-1H-pyrazol-3-ylamino)-6,7-dihydro-5H-cyclopenta[d]pyrimidin-2-yl)-N-(6-fluoropyridin-3-yl)piperidine-2-carboxamide] | 16 | 6 | – | 14 | 17 | 0.78 | 3 | 9 | – | – | – | –
8 | CC(C)c1cc(Nc2nc(N3CCCC3C(=O)Nc3ccc(F)nc3)nc3c2CCCC3)n[nH]1 (single isomer, unassigned) [Compound 13b, N-(6-fluoropyridin-3-yl)-1-(4-(5-isopropyl-1H-pyrazol-3-ylamino)-5,6,7,8-tetrahydroquinazolin-2-yl)pyrrolidine-2-carboxamide] | – | – | 13 | – | – | 0.00 | – | – | 17 | 0.22 | 0.09 | 0.00
9 | O=C(Nc1ccc(F)nc1)C1CCCN1c1nc2c(c(Nc3cc(C4CC4)[nH]n3)n1)CCCC2 (single isomer, unassigned) [Compound 14b, 1-(4-(5-cyclopropyl-1H-pyrazol-3-ylamino)-5,6,7,8-tetrahydroquinazolin-2-yl)-N-(6-fluoropyridin-3-yl)pyrrolidine-2-carboxamide] | 77 | 81 | 16 | 77 | 76 | 0.00 | 82 | 81 | 22 | 0.51 | 0.49 | 0.02
10 | O=C(Nc1ccc(F)nc1)C1CCCN1c1nc2c(c(Nc3cc(C4CCCC4)[nH]n3)n1)CCCC2 (single isomer, unassigned) [Compound 15a, 1-(4-(5-cyclopentyl-1H-pyrazol-3-ylamino)-5,6,7,8-tetrahydroquinazolin-2-yl)-N-(6-fluoropyridin-3-yl)pyrrolidine-2-carboxamide] | 19 | – | – | 17 | 20 | 0.59 | – | – | – | 0.70 | 0.89 | 0.92
11 | CC(C)c1cc(Nc2nc(N3CCCCC3C(=O)Nc3ccc(F)nc3)nc3c2CCC3)n[nH]1 (single isomer, unassigned) [Compound 16a, N-(6-fluoropyridin-3-yl)-1-(4-(5-isopropyl-1H-pyrazol-3-ylamino)-6,7-dihydro-5H-cyclopenta[d]pyrimidin-2-yl)piperidine-2-carboxamide] | 21 | – | – | 27 | – | 0.30 | – | – | – | 0.82 | 0.62 | 0.61
12 | O=C(Nc1ccc(F)nc1)C1CCCCN1c1nc2c(c(Nc3cc(C4CCCC4)[nH]n3)n1)CCC2 (single isomer, unassigned) [Compound 17a, 1-(4-(5-cyclopentyl-1H-pyrazol-3-ylamino)-6,7-dihydro-5H-cyclopenta[d]pyrimidin-2-yl)-N-(6-fluoropyridin-3-yl)piperidine-2-carboxamide] | 18 | 3 | – | 12 | 24 | – | 2 | 5 | – | 0.89 | – | –
13 | COC1CC(C(=O)Nc2ccc(F)nc2)N(c2nc3c(c(Nc4cc(C5CC5)[nH]n4)n2)CCC3)C1 (single isomer, unassigned) [Compound 21b] | – | 30 | 120 | – | – | – | – | – | – | – | – | –
